Reference: patent US20030216471A1, “Retinoid formulations for aerosolization and inhalation” (priority 2003, published 2003)
Entries after “also recorded” stand apart in the source; their conditions may differ. Marks after values point to notes of the source that are not given here.

Legend:
RAR α [1] = experiment: Western blot of rat lung, inhaled 13-cis RA (experiment A), RAR α; format: in vivo; details: for upregulation of lung tissue RAR (first named, α): daily deposited dose 6.4 mg/kg/day
Procedure: (§1) The experimental groups were as follows (Table 4):1. Vehicle (10/9 mix of PEG 300 and Ethanol with 0.5% of ascorbic acid and 0.5% phosphatidyl choline) control, day 1: rats (19) inhaled vehicle for 2 hr for one day; 2. […] Vehicle control, day 28: rats (16) inhaled vehicle as for group 1 for a period of 28 days; 5.
(§2) Tissues were collected, frozen in dry ice and kept at −70° C. until used. 500 mg aliquots were diced in small pieces and homogenized in 300 μl of cold PBS, using the hand held homogenizer for 2˜3 minutes. Sample and washes were centrifuged at 5000×g for 20 minutes. The pellet was suspended in 400 μl of ice-cold Buffer A [2 μl 0.5M EDTA, 10 μl 100 mM EGTA, 50 μl 100MM PMSF, 10 μl 1M DTT, 10 ml (10 mM HEPES pH 7.9+10 mM KCl)], and left at ice temperature for 15 minutes. 25 μl of 10% solution of NP-40 was added and samples were mixed in a vortex vigorously for 10 seconds. Samples were centrifuged at 14,000×g for 1 minute at 4° C. and the pellet treated once more in this fashion (resuspended etc.). The supernatant was removed and 100 μl of ice-cold Buffer C [4 μl 0.5M EDTA, 20 μl 100 mM EGTA, 20 μl 100 mM PMSF, 2 μl 1M DTT, 2 ml (20 mM HEPES pH 7.9+0.4M NaCl)] was added. Pellets were resuspended by tapping gently on the bottom of the Eppendorf tubes. Samples were rocked vigorously in a bucket of ice on an orbital shaker for 30 minutes. Samples were centrifuged at 14,000×g for 5 minutes at 4° C.
Samples were prepared by adding one part of the Sample Buffer to one part of the sample and mixing well. Samples were heated at 95° C. for 5 minutes to induce denaturation. 5 μl of Rainbow Standard and 5 μl of Biotinylated Molecular Marker were added to parallel wells. 20 μg protein per sample was loaded in each lane. Electrophoresis was performed with voltage set at 125V for about 1˜1.5 hours. Gel transfer was executed at 25V for 2 hours. The membrane was stained in Ponceau S. for 5 minutes and destained with one wash of 5% acetic acid. The membrane was then washed in TBS solution until the staining disappeared. […]

liver RARs = experiment: Western blot of rat liver RARs after inhaled 13-cis RA; format: in vivo; details: not shown
Procedure: as §1
The experimental groups were as follows (Table 1): 1. Vehicle control: rats (3) inhaled vehicle for 240 minutes; 2.
as §2, with “Samples were rocked vigorously in a bucket of ice on an orbital shaker for 30 minutes. Samples were centrifuged at 14,000×g for 5 minutes at 4° C.” left out

RAR α [2] = experiment: RAR induction in lungs of A/J mice exposed to isotretinoin aerosol, RAR α; format: in vivo, mouse; details: inhaled mid dose, urethane-treated A/J mice
Procedure: Antibodies: Polyclonal antibodies to RARα, β and γ (Santa Cruz Biotechnology Inc., San Francisco, Calif.) were used with a BM Chemiluminescence Western Blotting Kit (Mouse/Rabbit) (Boehringer Mannheim Corporation, Indianapolis).
Experimental Design: Five lungs each from the urethane-treated vehicle, low dose, and mid dose animals were snap frozen in liquid nitrogen and stored at −70° C. for determination of RARs α, β and γ by Western Blot Analysis. […] The lungs were homogenized and the RARs were determined by standard Western Blotting (21, 22).
Samples: Lung tissue was collected, frozen on dry ice and kept at −70° C. until used. A 500 mg portion was diced in small pieces and homogenized in 300 μl of cold PBS using a hand held homogenizer for 2-3 min. Samples were centrifuged at 500 rpm for 5 min or until the supernatant was clear. The pellet was suspended in 400 μl of cold Buffer A [2 μl 0.5 M EDTA, 10 μl mM EGTA, 50 μl 100 mM PMSF, 10 μl 1M DTT, 10 ml (10 mM HEPES pH 7.9+10 mM KCl)], and left at ice temperature for 15 min. A 25 μl volume of 10% solution of NP−40 was added and the samples were mixed in a vortex vigorously for 10 sec. Samples were centrifuged at 14,000 rpm for 1 min at 4° C. and the pellet was treated once more in this fashion. […]

A/J mice = experiment: Lung carcinogenesis model: carcinogen-treated A/J mice exposed to isotretinoin aerosols; format: in vivo, mouse; details: for Efficacy (Carcinogen): 10-16 weeks; for non-significant reduction of tumor multiplicity: low dose; for reduction in multiplicity of tumor nodules: mid isotretinoin dose
Source text: The A/J mouse is a well-established animal model for preclinical chemoprevention studies. This strain has a hereditary predisposition for lung cancer, the so-called pulmonary adenoma susceptibility (Pas) genes. A strong candidate for one of these genes, Pas-1, is the K-ras protooncogene. Carcinogenesis in this model with NNK as the inciting agent has been studied so that the times required to develop hyperplastic areas, adenomas, and carcinomas are well known. In addition, the timing of molecular changes associated with carcinogenesis has been studied and are similar to those in humans. In both species, K-ras mutations are common early events.
Powdered isotretinoin was dissolved in 100% ethanol plus 0.1% α-tocopherol and 0.1% ascorbyl palmitate to give concentrations of isotretinoin ranging from 0.1 to 10 mg/ml. The formulations were prepared monthly. The solutions were protected from light and stored at −5° C. until use. Ultraviolet-visible spectrophotometric verification of the formulated test article concentration was performed on all batches in advance of inhalation treatments with the test article solution. Only formulations within ±10% of the targeted concentration were used on study.
Within 24 h of the last inhalation exposure, animals were euthanized by intraperitoneal injection of pentobarbital and their lungs were removed and fixed in Bouin's solution or flash frozen for RAR determination. The lungs were evaluated in a blinded fashion so that neither carcinogen nor isotretinoin dose levels were known to the evaluator, who visually counted hyperplastic areas and adenomas on the lung pleural surface as previously described. The significance of the differences between the mean tumor incidence of the treatment and the control groups was determined using the Mann-Whitney Rank Sum test (Statmost TM, DataMost Corp., Sandy, Utah).

[3] = BaP, weekly pulmonary dose 0.25 mg/kg
[4] = BaP, weekly pulmonary dose 4.0 mg/kg
[5] = NNK and BaP, A/J mice, inhalation
[6] = NNK, weekly pulmonary dose 0.25 mg/kg
[7] = NNK, weekly pulmonary dose 4.0 mg/kg
[8] = Urethane, weekly pulmonary dose 0.25 mg/kg
[9] = Urethane, weekly pulmonary dose 4.0 mg/kg

## CC1=C(/C=C/C(C)=C/C=C/C(C)=C\C(=O)O)C(C)(C)CCC1 [13-cis RA, 13-cis-Retinoic Acid]
RAR α [1]; daily deposited dose 1.9 mg/kg/day, day 28
  induction of lung RAR (first named, α): 4.7 fold
RAR α [1]; day 1
  upregulation of lung tissue RAR (first named, α): 3.4 fold
RAR α [1]; day 17
  upregulation of lung tissue RAR (first named, α): 4.2 fold
Liver RARs; 5 to 240 minutes daily for 14 days
  effect of inhaled 13-cis RA on liver RARs: not responsive
Liver RARs; same rats as FIG. 2A (experiment A)
  effect of inhaled 13-cis RA on liver RARs: failed to show any increase
RAR α [2]
  upregulation of lung tissue RAR α over solvent (vehicle): 3.9 fold
A/J mice; 0.24 mg/kg weekly total deposited (inh), NNK, BaP, Maybe = trend for efficacy
  Efficacy (Carcinogen): Maybe
A/J mice; 0.24 mg/kg weekly total deposited (inh), urethane
  Efficacy (Carcinogen): No
A/J mice; 1.6 mg/kg weekly total deposited (inh), NNK, BaP
  Efficacy (Carcinogen): Yes
A/J mice; 1.6 mg/kg weekly total deposited (inh), urethane
  Efficacy (Carcinogen): No
A/J mice; 24.9 mg/kg weekly total deposited (inh), urethane, NNK, BaP
  Efficacy (Carcinogen): Yes (urethane, NNK, BaP)
A/J mice; BaP, weekly pulmonary dose 0.04 mg/kg, vehicle control 0.2
  Hyperplastic Areas Per Lung Set (Mean ± SE): 0.8 ± 0.3
A/J mice; BaP, weekly pulmonary dose 0.04 mg/kg, vehicle control 9.0
  Tumors Per Lung Set (Mean ± SE): 6.4 ± 0.7^f
A/J mice; BaP, weekly pulmonary dose 0.04 mg/kg, vehicle control 9.2
  Total Lesions Per Lung Set (Mean ± SE): 7.2 ± 0.8
A/J mice; [3]
  Hyperplastic Areas Per Lung Set (Mean ± SE): 3.2 ± 0.4^d
  Total Lesions Per Lung Set (Mean ± SE): 6.1 ± 0.5^b
  Tumors Per Lung Set (Mean ± SE): 3.0 ± 0.5^d
A/J mice; [4]
  Hyperplastic Areas Per Lung Set (Mean ± SE): 3.3 ± 0.9^d
  Total Lesions Per Lung Set (Mean ± SE): 5.2 ± 1.0^b
  Tumors Per Lung Set (Mean ± SE): 1.8 ± 0.5^d
A/J mice; [5]
  weekly pulmonary dose with evidence of efficacy (as low as): 0.25 mg/kg
  weekly pulmonary dose with suggested efficacy: 0.04 mg/kg
A/J mice; NNK, weekly pulmonary dose 0.04 mg/kg, vehicle control 1.3
  Hyperplastic Areas Per Lung Set (Mean ± SE): 2.0 ± 0.4
A/J mice; NNK, weekly pulmonary dose 0.04 mg/kg, vehicle control 2.5
  Tumors Per Lung Set (Mean ± SE): 2.1 ± 0.3^e
A/J mice; NNK, weekly pulmonary dose 0.04 mg/kg, vehicle control 3.8
  Total Lesions Per Lung Set (Mean ± SE): 4.1 ± 0.6
A/J mice; [6]
  Hyperplastic Areas Per Lung Set (Mean ± SE): 3.3 ± 0.3^d
  Total Lesions Per Lung Set (Mean ± SE): 3.6 ± 0.3
  Tumors Per Lung Set (Mean ± SE): 0.3 ± 0.2^d
A/J mice; [7]
  Hyperplastic Areas Per Lung Set (Mean ± SE): 3.8 ± 0.6^c
  Total Lesions Per Lung Set (Mean ± SE): 4.5 ± 0.7
  Tumors Per Lung Set (Mean ± SE): 0.8 ± 0.3^d
A/J mice; Urethane, weekly pulmonary dose 0.04 mg/kg, vehicle control 4.6
  Hyperplastic Areas Per Lung Set (Mean ± SE): 3.6 ± 1.1
A/J mice; Urethane, weekly pulmonary dose 0.04 mg/kg, vehicle control 24.2
  Tumors Per Lung Set (Mean ± SE): 25.7 ± 1.7
A/J mice; Urethane, weekly pulmonary dose 0.04 mg/kg, vehicle control 29.2
  Total Lesions Per Lung Set (Mean ± SE): 29.3 ± 1.5
A/J mice; [8]
  Hyperplastic Areas Per Lung Set (Mean ± SE): 5.9 ± 1.2
  Total Lesions Per Lung Set (Mean ± SE): 32.2 ± 2.4
  Tumors Per Lung Set (Mean ± SE): 26.4 ± 2.1
A/J mice; [9]
  Hyperplastic Areas Per Lung Set (Mean ± SE): 5.3 ± 1.3
  Total Lesions Per Lung Set (Mean ± SE): 15.9 ± 1.9^d
  Tumors Per Lung Set (Mean ± SE): 10.6 ± 1.2^d
A/J mice; low (lowest) isotretinoin dose
  effect of treatment on numbers of tumors: not affected by treatment at the 95% confidence level; also recorded: not significantly effective
A/J mice; BaP-treated mice (p<0.13)
  non-significant reduction of tumor multiplicity: 30%
A/J mice; NNK-treated mice (p<0.30)
  non-significant reduction of tumor multiplicity: 16%
A/J mice; BaP-treated mice
  reduction in multiplicity of tumor nodules: 67%
A/J mice; NNK-treated mice
  reduction in multiplicity of tumor nodules: 88%
